In patent US20200190101A1, “Composition Containing Novel Glutamic Acid Derivative And Block Copolymer, And Use Thereof” (Nippon Kayaku Kabushiki Kaisha, priority 2015, published 2020):

Columns and labels:
[1] = system: human ovarian cancer SHIN-3 tumors; test: Test on antitumor effect of Synthesis Example 1, SHIN-3 tumors; type: in vivo; conditions: three times at an interval of 7 days
Description: By an operation similar to that of Test Example 12, human ovarian cancer SHIN-3 tumors were subcutaneously transplanted into SCID mice, and tumor engraftment was confirmed.
(§1) After the administration, the major axis (L) and the minor axis (W) of a tumor were measured using calipers at an interval of 2 to 3 days, the tumor volume was calculated by the formula: (L×W^2)/2, and the tumor volume change rate from the administration initiation day was determined.

[2] = system: human renal cell cancer OS-RC-2 tumors; test: Test on antitumor effect of Synthesis Example 1, OS-RC-2 tumors; type: in vivo, SCID mice; conditions: two times at an interval of 14 days
Description: By an operation similar to that of Test Example 12, human renal cell cancer OS-RC-2 tumors were subcutaneously transplanted into SCID mice, and tumor engraftment was confirmed.
as §1

[3] = system: OS-RC-2 cells having high GGT activity; test: cells; type: cell-based, human; conditions: Homo sapiens; OS-RC-2 cells, 10 μM, 6 hours exposure then 3 days incubation; read-out: Cell proliferation inhibitory activity
Description: After the cells were incubated for 6 hours, the interior of the wells was washed, and after the cells were further incubated for 3 days, the cells were immobilized with methanol and stained using Methylene Blue dye. After staining, the dye was extracted with a 0.3% aqueous solution of hydrochloric acid was extracted, and the light absorbance at 660 nm was measured. For the light absorbance thus obtained, the cell proliferation suppressive activity was evaluated based on the reduction ratio for the light absorbance measured from cells to which the compound was not added.
By a similar operation, the cell proliferation suppressive activity was evaluated from the light absorbance, using doxorubicin that was not converted to a glutamic acid derivative. The results are shown in FIG. 1 (OS-RC-2 cells having high GGT activity) and FIG. 2 (SK-OV-3 cells having low GGT activity).
The cell proliferation inhibitory activity of the EHC-bonded glutamic acid derivative according to Synthesis Example 6 was evaluated using OS-RC-2 cells (RIKEN BioResource Center), which are known to have high GGT activity, and SK-OV-3 cells (American Type Culture Collection), which are known to have low GGT activity.
On a 96-well plate, OS-RC-2 cells having high GGT activity and SK-OV-3 cells having low GGT activity were each inoculated in an amount of 4,000 cells/well and were incubated for one day at 37° C. and 5% CO2, and then the EHC prodrug according to Synthesis Example 6 was added to the cells at a final concentration of 0.0001 to 1 μM. After the cells were incubated for 6 hours, the interior of the wells was washed, and the cells were further incubated for 3 days. After the incubation, the cells were immobilized with methanol and were stained using Methylene Blue dye. After staining, the dye was extracted with a 0.3% aqueous solution of hydrochloric acid, and the light absorbance at 660 nm was measured. The cell proliferation suppressive activity was evaluated based on the reduction ratio for the light absorbance thus obtained, with respect to the light absorbance measured from cells to which the compound was not added.
By a similar operation, EHC, which was an active ingredient of Synthesis Example 6, was used without modification, and the cell proliferation suppressive activity was evaluated from the light absorbance.

[4] = 20 mg/kg-administered group, i.v.

COc1cccc2c1C(=O)c1c(O)c3c(c(O)c1C2=O)C[C@@](O)(C(=O)CO)CC3OC1CC(NC(=O)OCc2ccc(NC(=O)CCC(N)C(=O)O)cc2)C(O)C(C)O1 (stereo partly drawn) [Synthesis Example 1, (((4-((S)-4-amino-4-carboxybutanamide)benzyl)oxy)carbonyl)doxorubicin]
Antitumor effect (relative tumor volume) versus control drug [1, 4]: antitumor effect that was equivalent to that of the control drug
Antitumor effect (relative tumor volume) ([1]; 5 or 20 mg/kg i.v.): dose-dependent antitumor effect
Antitumor effect (relative tumor volume) versus control drug [2, 4]: antitumor effect that was equal to the effect of the doxorubicin hydrochloride-administered group (5 mg/kg)
Antitumor effect (relative tumor volume) ([2]; 5 or 20 mg/kg i.v.): dose-dependent antitumor effect
inhibition at 10 µM [3]: 76%
